Broadly, the EC50 is the concentration needed to bring the measured effect to its halfway point.

Each structure is given as a SMILES string. Some results are limits rather than exact numbers.

In one experiment the target is P2Y purinoceptor 6 (Homo sapiens, UniProt Q15077). In words: Agonist activity at human P2Y6 receptor expressed in human 1321N1 cells assessed as [3H]inositol phosphate accumulation by scintillation proximity assay. Type of experiment: functional, cell-based. (In a scintillation proximity assay essentially only radioactivity close to the scintillant gives light.)
The next experiment concerns the target P2Y purinoceptor 2 (Homo sapiens, UniProt P41231). In words: Agonist activity at human P2Y2 receptor expressed in human 1321N1 cells assessed as [3H]inositol phosphate accumulation by scintillation proximity assay. The format is functional, cell-based.
In a further experiment the target is P2Y purinoceptor 4 (Homo sapiens, UniProt P51582). Nature of the experiment: Agonist activity at human P2Y4 receptor expressed in human 1321N1 cells assessed as [3H]inositol phosphate accumulation by scintillation proximity assay. Type of experiment: functional, cell-based.
For the next experiment, the species on record is Homo sapiens. In words: Selectivity for human P2Y2 receptor over human P2Y4 receptor.

Chain of P2Y purinoceptor 2 (P41231 whole entry): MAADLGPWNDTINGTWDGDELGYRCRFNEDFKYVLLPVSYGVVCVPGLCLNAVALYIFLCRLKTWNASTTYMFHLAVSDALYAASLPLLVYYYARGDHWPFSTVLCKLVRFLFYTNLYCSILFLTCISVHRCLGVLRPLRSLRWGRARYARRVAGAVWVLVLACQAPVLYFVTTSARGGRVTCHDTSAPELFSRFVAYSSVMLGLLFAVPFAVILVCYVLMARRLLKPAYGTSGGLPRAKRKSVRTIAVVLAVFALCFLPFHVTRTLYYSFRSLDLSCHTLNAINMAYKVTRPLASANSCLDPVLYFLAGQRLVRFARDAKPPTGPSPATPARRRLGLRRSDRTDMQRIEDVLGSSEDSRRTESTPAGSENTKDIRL
Chain of P2Y purinoceptor 4 (P51582 whole entry): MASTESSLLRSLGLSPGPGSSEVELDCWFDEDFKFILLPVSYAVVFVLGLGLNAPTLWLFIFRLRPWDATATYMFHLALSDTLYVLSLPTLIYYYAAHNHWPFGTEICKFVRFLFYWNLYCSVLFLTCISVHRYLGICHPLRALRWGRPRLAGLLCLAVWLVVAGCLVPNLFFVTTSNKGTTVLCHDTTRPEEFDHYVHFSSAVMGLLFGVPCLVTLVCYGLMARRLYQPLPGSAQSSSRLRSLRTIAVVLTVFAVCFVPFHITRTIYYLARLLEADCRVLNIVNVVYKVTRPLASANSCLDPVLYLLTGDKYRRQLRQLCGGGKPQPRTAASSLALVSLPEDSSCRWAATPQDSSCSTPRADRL
Chain of P2Y purinoceptor 6 (Q15077 whole entry): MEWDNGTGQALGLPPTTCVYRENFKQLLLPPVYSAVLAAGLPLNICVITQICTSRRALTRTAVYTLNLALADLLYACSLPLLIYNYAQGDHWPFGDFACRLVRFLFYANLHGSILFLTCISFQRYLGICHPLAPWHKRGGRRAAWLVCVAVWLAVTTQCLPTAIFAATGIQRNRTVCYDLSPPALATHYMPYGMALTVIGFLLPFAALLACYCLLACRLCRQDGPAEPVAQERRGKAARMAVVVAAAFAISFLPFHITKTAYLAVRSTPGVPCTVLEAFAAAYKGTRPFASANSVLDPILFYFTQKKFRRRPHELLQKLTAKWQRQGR

Take `O=c1ccn([C@@H]2O[C@H](COP(=O)(O)OP(=O)(O)C(F)(F)P(=O)(O)O)[C@@H](O)[C@H]2O)c(=S)[nH]1`: the EC50 is 5150 nM at P2Y purinoceptor 6, 1630 nM on P2Y purinoceptor 2 and 8110 nM at P2Y purinoceptor 4.

For the compound `O=c1ccn([C@@H]2O[C@H](COP(=O)(O)OP(=O)(O)OP(=O)(O)OP(=O)(O)O)[C@@H](O)[C@H]2O)c(=O)[nH]1`, the values for the EC50 on P2Y purinoceptor 6, at P2Y purinoceptor 2 and on P2Y purinoceptor 4 were 7560 nM, 2610 nM and 4640 nM, respectively.

Turning to `O=c1ccn([C@@H]2O[C@H](COP(=O)(O)OP(=O)(O)OP(=O)(O)OP(=O)(O)OC3CCCCC3)[C@@H](O)[C@H]2O)c(=O)[nH]1`, the EC50 on P2Y purinoceptor 6 is greater than 10000 nM; on P2Y purinoceptor 2 it was 5860 nM; on P2Y purinoceptor 4 it was greater than 10000 nM.

As for `O=c1ccn([C@@H]2O[C@H](COP(=O)(O)OP(=O)(O)OP(=O)(O)OP(=O)(O)OP(=O)(O)O)[C@@H](O)[C@H]2O)c(=S)[nH]1`, the concentration giving a half-maximal response (EC50) on P2Y purinoceptor 6 stood at 7330 nM; on P2Y purinoceptor 2, 570 nM; at P2Y purinoceptor 4 it was 5270 nM.

In the case of `O=c1ccn([C@@H]2O[C@H](COP(=O)(O)OP(=O)(O)OP(=O)(O)OP(=O)(O)OC[C@H]3OC(O)C[C@@H](O)[C@@H]3O)[C@@H](O)[C@H]2O)c(=O)[nH]1` (stereo not given in full), the concentration giving a half-maximal response (EC50) on P2Y purinoceptor 6 was greater than 10000 nM; at P2Y purinoceptor 2, 3540 nM; at P2Y purinoceptor 4 it was 4320 nM.

Consider `O=c1[nH]c(=S)ccn1[C@@H]1O[C@H](COP(=O)(O)OP(=O)(O)OP(=O)(O)OP(=O)(O)OC[C@H]2O[C@@H](n3ccc(=S)[nH]c3=O)[C@H](O)[C@@H]2O)[C@@H](O)[C@H]1O`, for which the EC50 worked out at 2030 nM on P2Y purinoceptor 6, 30 nM on P2Y purinoceptor 2 and 80 nM at P2Y purinoceptor 4.

For the compound `O=c1ccn([C@@H]2O[C@H](COP(=O)(O)OP(=O)(O)OP(=O)(O)O)[C@@H](O)[C@H]2O)c(=O)[nH]1` [URIDINE TRIPHOSPHATE], the EC50 at P2Y purinoceptor 6 was greater than 10000 nM; at P2Y purinoceptor 2, 60 nM; on P2Y purinoceptor 4, 90 nM.

On to `Nc1cn([C@@H]2O[C@H](COP(=O)(O)OP(=O)(O)O)[C@@H](O)[C@H]2O)c(=O)[nH]c1=O`, for which the half-maximal effective concentration (EC50) at P2Y purinoceptor 6 worked out at 610 nM.

On to `Nc1ccn([C@H]2C[C@H](O)[C@@H](COP(=O)(O)OP(=O)(O)OP(=O)(O)OP(=O)(O)OC[C@H]3O[C@@H](n4ccc(=O)[nH]c4=S)[C@H](O)[C@@H]3O)O2)c(=O)n1`, for which the EC50 is 1050 nM at P2Y purinoceptor 6, 80 nM at P2Y purinoceptor 2 and 710 nM on P2Y purinoceptor 4. For the same compound, the Ratio EC50 in the experiment filed under Homo sapiens came out at 9.

For `O=c1ccn([C@@H]2O[C@H](COP(=O)(O)OP(=O)(O)OP(=O)(O)OP(=O)(O)O[C@H]3O[C@H](CO)[C@@H](O)[C@H](O)[C@H]3O)[C@@H](O)[C@H]2O)c(=O)[nH]1`, the EC50 was determined as 7830 nM at P2Y purinoceptor 6, 300 nM on P2Y purinoceptor 2 and 2060 nM on P2Y purinoceptor 4.

Take `CSc1ccn([C@@H]2O[C@H](COP(=O)(O)OP(=O)(O)OP(=O)(O)O)[C@@H](O)[C@H]2O)c(=S)n1`: the concentration giving a half-maximal response (EC50) at P2Y purinoceptor 6 is greater than 10000 nM; at P2Y purinoceptor 2, 910 nM; on P2Y purinoceptor 4 it was 5350 nM.

As to `O=c1ccn([C@@H]2O[C@H](COP(=O)(O)OP(=O)(O)OP(=O)(O)OP(=O)(O)OC[C@@H]3OC(O)[C@@H](O)[C@H]3O)[C@@H](O)[C@H]2O)c(=O)[nH]1` (stereo not given in full), the results for the EC50 at P2Y purinoceptor 6, at P2Y purinoceptor 2 and on P2Y purinoceptor 4 were greater than 10000 nM, 1880 nM and 4780 nM, respectively.

As for `O=c1[nH]c(=S)ccn1[C@@H]1O[C@H](COP(=O)(O)OP(=O)(O)OP(=O)(O)OP(=O)(O)O)[C@@H](O)[C@H]1O`, the EC50 at P2Y purinoceptor 6 is 6460 nM; at P2Y purinoceptor 2, 70 nM; at P2Y purinoceptor 4, 280 nM.

`O=c1ccn([C@@H]2O[C@H](COP(=O)(O)OP(=O)(O)OP(=O)(O)OC[C@H]3O[C@@H](n4cc(I)c(=O)[nH]c4=O)[C@H](O)[C@@H]3O)[C@H]3OC(Cc4ccccc4)O[C@H]32)c(=O)[nH]1` (stereo not given in full): the EC50 at P2Y purinoceptor 6 is 5490 nM; at P2Y purinoceptor 2 it was 9970 nM.

As to `O=c1ccn([C@@H]2O[C@H](COP(=O)(O)OP(=O)(O)C(Cl)(Cl)P(=O)(O)OP(=O)(O)OC[C@H]3O[C@@H](n4ccc(=O)[nH]c4=O)[C@H](O)[C@@H]3O)[C@@H](O)[C@H]2O)c(=O)[nH]1`, the concentration giving a half-maximal response (EC50) on P2Y purinoceptor 2 was 7770 nM.

Take `C[C@@]1(O)[C@H](O)[C@@H](COP(=O)(O)OP(=O)(O)OP(=O)(O)O)O[C@H]1n1ccc(=O)[nH]c1=O`: the concentration for a half-maximal effect (EC50) on P2Y purinoceptor 2 amounted to 1450 nM; on P2Y purinoceptor 4, 1260 nM.

Consider `O=c1ccn([C@@H]2O[C@H](COP(=O)(O)OP(=O)(O)OP(=O)(O)OP(=O)(O)OC[C@@H]3O[C@@](O)(CO)[C@H](O)[C@H]3O)[C@@H](O)[C@H]2O)c(=O)[nH]1`, for which the EC50 on P2Y purinoceptor 2 is 3330 nM; on P2Y purinoceptor 4, 6300 nM.

On to `Nc1nc2c(ncn2[C@H]2C[C@H](O)[C@@H](COP(=O)(O)OP(=O)(O)OP(=O)(O)OP(=O)(O)OC[C@H]3O[C@@H](n4ccc(=O)[nH]c4=O)[C@H](O)[C@@H]3O)O2)c(=O)[nH]1`, for which the EC50 was 1030 nM at P2Y purinoceptor 6, 140 nM at P2Y purinoceptor 2 and 540 nM at P2Y purinoceptor 4.

`O=c1ccn([C@@H]2O[C@H](COP(=O)(O)OP(=O)(O)OP(=O)(O)O)[C@@H](O)[C@@H]2O)c(=S)[nH]1`: the concentration for a half-maximal effect (EC50) stood at 140 nM on P2Y purinoceptor 2 and 7930 nM on P2Y purinoceptor 4.

Regarding `O=c1ccn([C@@H]2O[C@H](COP(=O)(O)OP(=O)(O)OP(=O)(O)OP(=O)(O)O[C@H]3O[C@H](CO)[C@H](O)[C@H](O)[C@H]3O)[C@@H](O)[C@H]2O)c(=O)[nH]1`, the concentration giving a half-maximal response (EC50) at P2Y purinoceptor 6 was 8190 nM; on P2Y purinoceptor 2, 4850 nM; on P2Y purinoceptor 4, 1770 nM.

Consider `Nc1ccn([C@H]2C[C@H](O)[C@@H](COP(=O)(O)OP(=O)(O)OP(=O)(O)OP(=O)(O)OC[C@H]3O[C@@H](n4ccc(=O)[nH]c4=O)[C@H](O)[C@@H]3O)O2)c(=O)n1` [DENUFOSOL], for which the half-maximal effective concentration (EC50) on P2Y purinoceptor 6 stood at 950 nM; at P2Y purinoceptor 2 it was 140 nM; at P2Y purinoceptor 4, 140 nM.

In the case of `O=c1ccn([C@@H]2O[C@H](COP(=O)(O)OP(=O)(O)OP(=O)(O)OP(=O)(O)Oc3ccccc3)[C@@H](O)[C@H]2O)c(=O)[nH]1`, at P2Y purinoceptor 2, the EC50 turned out to be 1890 nM.

Take `O=c1ccn([C@@H]2O[C@H](COP(=O)(O)OP(=O)(O)C(F)(F)P(=O)(O)OP(=O)(O)OC[C@H]3O[C@@H](n4ccc(=O)[nH]c4=O)[C@H](O)[C@@H]3O)[C@@H](O)[C@H]2O)c(=O)[nH]1`: the concentration for a half-maximal effect (EC50) at P2Y purinoceptor 6 is greater than 10000 nM; at P2Y purinoceptor 2, 2270 nM; at P2Y purinoceptor 4, greater than 10000 nM.

For `O=c1ccn([C@@H]2O[C@H](COP(=O)(O)OP(=O)(O)OP(=O)(O)OC[C@H]3O[C@@H](n4ccc(=O)[nH]c4=O)[C@H](O)[C@@H]3O)[C@@H](O)[C@H]2O)c(=O)[nH]1`, the concentration giving a half-maximal response (EC50) at P2Y purinoceptor 6 is 270 nM; at P2Y purinoceptor 2 it was 1310 nM; on P2Y purinoceptor 4, 870 nM.

`O=c1ccn([C@@H]2O[C@H](COP(=O)(O)OP(=O)(O)OP(=O)(O)OP(=O)(O)OCC(O)CO)[C@@H](O)[C@H]2O)c(=O)[nH]1` (stereo not given in full): the concentration for a half-maximal effect (EC50) on P2Y purinoceptor 6 is 8190 nM; at P2Y purinoceptor 2 it was 1870 nM; on P2Y purinoceptor 4 it was 1120 nM.

In the case of `COP(=O)(O)OP(=O)(O)OP(=O)(O)OP(=O)(O)OC[C@H]1O[C@@H](n2ccc(=O)[nH]c2=O)[C@H](O)[C@@H]1O`, the EC50 on P2Y purinoceptor 6 was greater than 10000 nM; on P2Y purinoceptor 2, 3950 nM; on P2Y purinoceptor 4, 2700 nM.

Consider `N#CCCOP(=O)(O)OP(=O)(O)OP(=O)(O)OP(=O)(O)OC[C@H]1O[C@@H](n2ccc(=O)[nH]c2=O)[C@H](O)[C@@H]1O`, for which the EC50 on P2Y purinoceptor 6 is greater than 10000 nM; at P2Y purinoceptor 2 it was 1700 nM; at P2Y purinoceptor 4 it was 1960 nM.

In the case of `NC(=O)N[C@@H]1[C@H](O)[C@@H](COP(=O)(O)OP(=O)(O)O)O[C@H]1n1ccc(=O)[nH]c1=O`, the EC50 on P2Y purinoceptor 6 turned out to be 4700 nM.

As for `O=c1ccn([C@@H]2O[C@H](COP(=O)(O)CP(=O)(O)O)[C@@H](O)[C@H]2O)c(=O)[nH]1`, the EC50 on P2Y purinoceptor 6 amounted to 660 nM.

As to `O=c1ccn([C@@H]2O[C@H](COP(=O)(O)OP(=O)(O)OP(=O)(O)OP(=O)(O)OC[C@H]3OC(O)[C@@H](O)[C@@H](O)[C@@H]3O)[C@@H](O)[C@H]2O)c(=O)[nH]1` (stereo not given in full), the EC50 on P2Y purinoceptor 6, on P2Y purinoceptor 2 and at P2Y purinoceptor 4 was greater than 10000 nM in each case.

For the compound `O=c1ccn([C@@H]2O[C@H](COP(=O)(O)OP(=O)(O)C(Cl)(Cl)P(=O)(O)O)[C@@H](O)[C@H]2O)c(=S)[nH]1`, the EC50 at P2Y purinoceptor 6 was greater than 10000 nM; on P2Y purinoceptor 2, 2510 nM.

With `O=c1ccn([C@@H]2O[C@H](COP(=O)(O)OP(=O)(O)OP(=O)(O)OP(=O)(O)O)[C@@H](O)[C@H]2O)c(=S)[nH]1`, the results for the EC50 at P2Y purinoceptor 6, at P2Y purinoceptor 2 and on P2Y purinoceptor 4 were 6830 nM, 600 nM and 5520 nM, respectively.

Take `NC(=O)N[C@@H]1[C@H](O)[C@@H](COP(=O)(O)OP(=O)(O)OP(=O)(O)O)O[C@H]1n1ccc(=O)[nH]c1=O`: the 50% effective concentration (EC50) at P2Y purinoceptor 6 was greater than 10000 nM; at P2Y purinoceptor 2 it was 1740 nM; on P2Y purinoceptor 4, 4640 nM.

The values are drawn from ChEMBL document CHEMBL1150771, “Synthesis and potency of novel uracil nucleotides and derivatives as P2Y2 and P2Y6 receptor agonists” (Bioorg Med Chem, 2008).
